Reference: US8809341B2, “2,4-pyrimidinediamine compounds and uses as anti-proliferative agents” (Rigel Pharmaceuticals, Inc., priority 2003, dated 2014)
Like-named read-outs stand apart in the source and are kept apart here.

Key:
Type in all cases: cell-based
A549 cells = assay: in vitro antiproliferation assay, A549 (lung)
In short: (§1)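 IC50 values came from standard antiproliferation testing in cultured tumour cells; the A549 and H1299 lines are of lung origin.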

H1299 cells = assay: in vitro antiproliferation assay, H1299 (lung)
In short: as §1

ACHN = assay: in vitro antiproliferation assay, ACHN (kidney/p53 wt)
Method: (§2) The IC50 values of various compounds against a various different tumor cell lines were determined using standard in vitro antiproliferation assays. The tumor cell lines tested were as follows: A549 (lung); H1299 (lung), ACHN (kidney/p53 wt), CAKI (renal cell carcinoma), NCI-H460 (lung); HCT116 (colon/p53w0; HELA (cervix/p53 wt), HUH7 (liver/p53 wt), HUVEC (primary endothelial), LNCAP (prostate), HT-29 (colon); MCF-7 (breast); MCF-7 (breast/ER positive), MDA MB435S (breast); MDA MB231 (breast/ER negative), DU145 (prostate); BxPC-3 (pancreatic); SKOV-3 (ovarian); HepG2 (hepatic), NDHF primary normal human dermal fibroblast), SKMEL28 (breast/p53mut), SKMEL5 (breast/p53 wt), U20S (bone) and PC3 (prostate). […] A blank indicates the specified compound was not tested against the specified cell line.
(§3) Many of the compounds were tested against other cell lines. Their activity is reported in TABLE 15, below, where +”, “−”, “−/+” or “+/−” values are as described for TABLES 1-14. Where the cell line includes a value in a parenthetical, the value indicates the seeding density at which the assay was performed

CAKI = assay: in vitro antiproliferation assay, CAKI (renal cell carcinoma)
Method: as §2, §3

HCT116 = assay: in vitro antiproliferation assay, HCT116 (colon)
In short: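 IC50 is the reported value, taken from a conventional in vitro antiproliferation assay. Seeding density is indicated by any parenthetical figure attached to the cell line.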

SKMEL28 = assay: in vitro antiproliferation assay, SKMEL28 (breast/p53mut)
Method: as §2, §3

SKMEL5 = assay: in vitro antiproliferation assay, SKMEL5
Method: as §2, §3

HELA = assay: in vitro antiproliferation assay, HELA (cervix/p53 wt)
Method: as §2, §3

MCF-7 = assay: in vitro antiproliferation assay, MCF-7 (breast/ER positive)
Method: as §2, §3

MDA MB231 = assay: in vitro antiproliferation assay, MDA MB231 (breast/ER negative)
Method: as §2, §3

HUH7 = assay: in vitro antiproliferation assay, HUH7 (liver/p53 wt)
Method: as §2, §3

PC3 = assay: in vitro antiproliferation assay, PC3 (prostate)
Method: as §2, §3

HUVEC = assay: in vitro antiproliferation assay, HUVEC (primary endothelial)
Method: as §2, §3

LNCAP = assay: in vitro antiproliferation assay, LNCAP (prostate)
Method: as §2, §3

NDHF = assay: in vitro antiproliferation assay, NDHF (primary normal human dermal fibroblast)
Method: as §2, §3

U20S = assay: in vitro antiproliferation assay, U20S (bone)
Method: as §2, §3

[1] = IC50 class against A549 (lung) tumor cells
[2] = IC50 class against H1299 (lung) tumor cells
[3] = HCT116 (colon), read-out: HCT116
[4] = MCF7, seeding density 2K, read-out: MCF7(2K)
[5] = MCF7, seeding density 4K, read-out: MCF7(4K)
[6] = MDA-MB-231, seeding density 2K, read-out: MDA-MB-231(2K)
[7] = MDA-MB-231, seeding density 4K, read-out: MDA-MB-231(4K)
[8] = Table 7, in vitro antiproliferation, A549 (lung) cells
[9] = Table 7, in vitro antiproliferation, colon cells, read-out: HTC116
[10] = A549 (lung) cells, in vitro antiproliferation
[11] = H1299 (lung) cells, in vitro antiproliferation

Structure (SMILES) | IC50 (ACHN) | IC50 (CAKI) | IC50 (HCT116; [3]) | IC50 (SKMEL28) | IC50 (SKMEL5) | IC50 (A549 cells; [10]) | IC50 (H1299 cells; [11]) | further results
COc1c(C)cc(Nc2ncc(F)c(Nc3ccc4c(c3)NC(=O)C(C)(C)O4)n2)cc1Cl [compound 359] | – | – | > 20 µM | – | – | – | – | IC50 (HUH7): ≤ 20 µM
O=C(c1cc2cc(Nc3ncc(F)c(Nc4ccc5c(c4)OCCO5)n3)ccc2o1)N1CCCNCC1 [compound 644] | – | – | ≤ 20 µM | – | – | – | – | IC50 (A549 cells; [8]): ≤ 20 µM; IC50 (HCT116; [9]): ≤ 20 µM; IC50 (PC3): > 20 µM
CNC(=O)c1cc2cccc(Nc3ncc(F)c(Nc4ccc5c(c4)OCCO5)n3)c2[nH]1 [compound 649] | – | – | > 20 µM | – | – | – | – | IC50 (A549 cells; [8]): ≤ 20 µM; IC50 (HCT116; [9]): ≤ 20 µM; IC50 (HELA): ≤ 20 µM; IC50 (HUH7): ≤ 20 µM; IC50 (HUVEC): ≤ 20 µM; IC50 (LNCAP): ≤ 20 µM; IC50 (NDHF): ≤ 20 µM; IC50 (U20S): ≤ 20 µM
COc1cc(Nc2ncc(F)c(Nc3ccc(Cl)c(Cl)c3)n2)cc(OC)c1 [compound 835] | – | – | ≤ 20 µM | – | – | ≤ 20 µM | ≤ 20 µM | IC50 (HUVEC): ≤ 20 µM; IC50 (U20S): ≤ 20 µM
Cc1cc(C)cc(Nc2ncc(F)c(Nc3ccc(Cl)c(Cl)c3)n2)c1 [compound 838] | – | – | – | – | – | ≤ 20 µM | > 20 µM | IC50 (HUVEC): > 20 µM
COc1cc(Nc2nc(Nc3cc(C)cc(C)c3)ncc2F)cc(OC)c1 [compound 846] | ≤ 20 µM | ≤ 20 µM | ≤ 20 µM | ≤ 20 µM | ≤ 20 µM | ≤ 20 µM | ≤ 20 µM | IC50 (HUVEC): ≤ 20 µM
COc1cc(OC)cc(N(C)c2nc(Nc3cc(C)cc(C)c3)ncc2F)c1 [compound 851] | – | – | ≤ 20 µM | – | – | ≤ 20 µM | ≤ 20 µM | IC50 (HELA): ≤ 20 µM; IC50 (U20S): ≤ 20 µM
COc1ccc(Nc2nc(Nc3cccc(-c4ncco4)c3)ncc2F)cc1OC [compound 858] | ≤ 20 µM | – | ≤ 20 µM | ≤ 20 µM | ≤ 20 µM | ≤ 20 µM | ≤ 20 µM | IC50 (HELA): ≤ 20 µM; IC50 (MCF-7; [4]): ≤ 20 µM; IC50 (MCF-7; [5]): ≤ 20 µM; IC50 (MDA MB231; [6]): ≤ 20 µM; IC50 (MDA MB231; [7]): ≤ 20 µM; IC50 (U20S): ≤ 20 µM

The next lines start with results.

IC50 (ACHN) | IC50 (CAKI) | IC50 (HCT116; [3]) | IC50 (SKMEL28) | IC50 (SKMEL5) | IC50 (A549 cells; [10]) | IC50 (H1299 cells; [11]) | Structure (SMILES) | further results
≤ 20 µM | ≤ 20 µM | ≤ 20 µM | ≤ 20 µM | ≤ 20 µM | – | – | Fc1cnc(Nc2ccc(N3CCOCC3)cc2)nc1NC1CC1 [compound 101] | IC50 (A549 cells; [1]): ≤ 20 µM; IC50 (H1299 cells; [2]): ≤ 20 µM
≤ 20 µM | ≤ 20 µM | ≤ 20 µM | ≤ 20 µM | ≤ 20 µM | – | – | O=C(COc1cccc(Nc2ncc(F)c(NC3CC3)n2)c1)NC1CC1 [compound 102] | IC50 (A549 cells; [1]): ≤ 20 µM; IC50 (H1299 cells; [2]): ≤ 20 µM
≤ 20 µM | ≤ 20 µM | ≤ 20 µM | ≤ 20 µM | ≤ 20 µM | – | – | O=C(COc1cccc(Nc2ncc(F)c(NC3CC3)n2)c1)NC1CCC1 [compound 103] | IC50 (A549 cells; [1]): ≤ 20 µM; IC50 (H1299 cells; [2]): ≤ 20 µM
≤ 20 µM | ≤ 20 µM | ≤ 20 µM | ≤ 20 µM | ≤ 20 µM | – | – | CNC(=O)COc1cccc(Nc2ncc(F)c(NC3CC3)n2)c1 [compound 106] | IC50 (A549 cells; [1]): ≤ 20 µM; IC50 (H1299 cells; [2]): ≤ 20 µM
– | – | ≤ 20 µM | – | – | – | – | CN1CCN(c2ccc(Nc3ncc(F)c(N(C)C4CCC4)n3)cc2)CC1 [compound 125] | IC50 (A549 cells; [1]): ≤ 20 µM; IC50 (H1299 cells; [2]): ≤ 20 µM; IC50 (HELA): ≤ 20 µM; IC50 (MCF-7; [4]): ≤ 20 µM; IC50 (MCF-7; [5]): ≤ 20 µM; IC50 (MDA MB231; [6]): ≤ 20 µM; IC50 (MDA MB231; [7]): ≤ 20 µM
– | – | > 20 µM | – | – | – | – | CNC(=O)COc1cccc(Nc2ncc(F)c(Nc3ccc4c(c3)NC(=O)C(C)(C)O4)n2)c1 [compound 355] | IC50 (HUH7): ≤ 20 µM; IC50 (PC3): ≤ 20 µM
– | – | ≤ 20 µM | – | – | – | – | CNC(=O)COc1cccc(Nc2ncc(F)c(Nc3ccc4c(c3)OC(F)(F)C(F)(F)O4)n2)c1 [compound 503] | IC50 (A549 cells; Table 5, in vitro antiproliferation, A549 (lung) cells): < 20 µM; IC50 (PC3): > 20 µM
≤ 20 µM | ≤ 20 µM | – | ≤ 20 µM | ≤ 20 µM | – | – | CNC(=O)c1cc2cccc(Nc3ncc(F)c(Nc4cc(OC)cc(OC)c4)n3)c2[nH]1 [compound 654] | IC50 (A549 cells; [8]): ≤ 20 µM; IC50 (H1299 cells; Table 7, in vitro antiproliferation, H1299 (lung) cells): ≤ 20 µM
– | – | – | – | – | > 20 µM | ≤ 20 µM | CCOC(=O)COc1cccc(Nc2nc(Nc3cccc(O)c3)ncc2F)c1 [compound 763] | IC50 (PC3): > 20 µM
– | – | – | – | – | > 20 µM | ≤ 20 µM | CCOC(=O)COc1cccc(Nc2ncc(F)c(Nc3cc(OC)cc(OC)c3)n2)c1 [compound 766] | IC50 (PC3): > 20 µM
